Assay results from PubChem BioAssay AID2060621 (Molecular Pharmacology Branch, DTP, NCI, 2025).
Several values for one entry are separate records, joined by “and”; a condition that tells them apart may be missing. Equal entries are not always repeated.

System: 324938-238-R-J1-PDC complex spheroids viability
Assay: Anticancer human tumor 324938-238-R-J1-PDC patient-derived bladder carcinoma cell line growth inhibition [CLK]
Conditions: for viability, T/C: stronger effect = lower value
Outline: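 Patient-derived tumor cells grown as complex spheroids with HUVEC endothelial cells and mesenchymal stem cells, treated with drug combinations. Concentrations descend in half-log steps from near clinical Cmax, or from 10 microM if Cmax unknown.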

[1] = curve of first compound, second compound 0.0316 µM
[2] = curve of first compound, second compound 0.1 µM
[3] = curve of first compound, second compound 0.316 µM
[4] = curve of first compound, second compound 1 µM
[5] = curve of first compound, second compound 3.16 µM
[6] = curve of first compound, second compound 10 µM
[7] = second compound 0.0316 µM, first compound 0.0316 µM
[8] = second compound 0.0316 µM, first compound 0.1 µM
[9] = second compound 0.0316 µM, first compound 0.316 µM
[10] = second compound 0.0316 µM, first compound 1 µM
[11] = second compound 0.1 µM, first compound 0.0316 µM
[12] = second compound 0.1 µM, first compound 0.1 µM
[13] = second compound 0.1 µM, first compound 0.316 µM
[14] = second compound 0.1 µM, first compound 1 µM
[15] = second compound 0.316 µM, first compound 0.0316 µM
[16] = second compound 0.316 µM, first compound 0.1 µM
[17] = second compound 0.316 µM, first compound 0.316 µM
[18] = second compound 0.316 µM, first compound 1 µM
[19] = second compound 1 µM, first compound 0.0316 µM
[20] = second compound 1 µM, first compound 0.1 µM
[21] = second compound 1 µM, first compound 0.316 µM
[22] = second compound 1 µM, first compound 1 µM
[23] = second compound 3.16 µM, first compound 0.0316 µM
[24] = second compound 3.16 µM, first compound 0.1 µM
[25] = second compound 3.16 µM, first compound 0.316 µM
[26] = second compound 3.16 µM, first compound 1 µM
[27] = second compound 10 µM, first compound 0.0316 µM
[28] = second compound 10 µM, first compound 0.1 µM
[29] = second compound 10 µM, first compound 0.316 µM
[30] = second compound 10 µM, first compound 1 µM
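Note: viability read after seven days of drug exposure.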
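Throughout, for viability, T/C: 100% = DMSO vehicle control wells.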

CCN1CCN(Cc2ccc(Nc3ncc(F)c(-c4cc(F)c5nc(C)n(C(C)C)c5c4)n3)nc2)CC1 + CNC(=O)c1ccc(Nc2nc(OC3CCCC3)c3c(-c4ccc5nc(C)oc5c4)c[nH]c3n2)c(OC)c1
IC50 [1]: 87.6 nM | IC50 [2]: < 3.16 nM | IC50 [3]: < 3.16 nM | IC50 [4]: < 3.16 nM | IC50 [5]: < 3.16 nM | IC50 [6]: < 3.16 nM | viability, T/C (second compound 0.0316 µM, first compound 0.00316 µM): 75.9% | viability, T/C (second compound 0.0316 µM, first compound 0.01 µM): 77.3% | viability, T/C [7]: 57.8% | viability, T/C [8]: 49.9% | viability, T/C [9]: 42.8% | viability, T/C [10]: 36.6% | viability, T/C (second compound 0.1 µM, first compound 0.00316 µM): 32.2% | viability, T/C (second compound 0.1 µM, first compound 0.01 µM): 31.5% | viability, T/C [11]: 29.7% | viability, T/C [12]: 30.7% | viability, T/C [13]: 33.5% | viability, T/C [14]: 38.7% | viability, T/C (second compound 0.316 µM, first compound 0.00316 µM): 19.7% | viability, T/C (second compound 0.316 µM, first compound 0.01 µM): 17% | viability, T/C [15]: 19% | viability, T/C [16]: 22.7% | viability, T/C [17]: 30.5% | viability, T/C [18]: 33.3% | viability, T/C (second compound 1 µM, first compound 0.00316 µM): 18.5% | viability, T/C (second compound 1 µM, first compound 0.01 µM): 17.9% | viability, T/C [19]: 16.8% | viability, T/C [20]: 21.5% | viability, T/C [21]: 22.6% | viability, T/C [22]: 31.9% | viability, T/C (second compound 3.16 µM, first compound 0.00316 µM): 19% | viability, T/C (second compound 3.16 µM, first compound 0.01 µM): 18% | viability, T/C [23]: 16.1% | viability, T/C [24]: 20.6% | viability, T/C [25]: 29.9% | viability, T/C [26]: 30.5% | viability, T/C (second compound 10 µM, first compound 0.00316 µM): 16.4% | viability, T/C (second compound 10 µM, first compound 0.01 µM): 15.9% | viability, T/C [27]: 21.2% | viability, T/C [28]: 18.4% | viability, T/C [29]: 23% | viability, T/C [30]: 32.5%

CCN1CCN(Cc2ccc(Nc3ncc(F)c(-c4cc(F)c5nc(C)n(C(C)C)c5c4)n3)nc2)CC1
viability, T/C (compound 0.00316 µM): 74.7% and 81.3% | viability, T/C (compound 0.01 µM): 69.6% and 74.1% | viability, T/C (compound 0.0316 µM): 60% and 54.8% | viability, T/C (compound 0.1 µM): 41.8% and 48.6% | viability, T/C (compound 0.316 µM): 37% and 36.6% | viability, T/C (compound 1 µM): 36.5% and 46.5% | IC50 (curve of compound): 59.4 nM and 60.2 nM

CC(=O)O[C@H]1C(=O)[C@@]2(C)[C@H]([C@H](OC(=O)c3ccccc3)[C@]3(O)C[C@H](OC(=O)[C@H](O)[C@@H](NC(=O)c4ccccc4)c4ccccc4)C(C)=C1C3(C)C)[C@]1(OC(C)=O)CO[C@@H]1C[C@@H]2O + CNC(=O)c1ccc(Nc2nc(OC3CCCC3)c3c(-c4ccc5nc(C)oc5c4)c[nH]c3n2)c(OC)c1
IC50 [1]: < 31.6 nM | IC50 [2]: < 31.6 nM | IC50 [3]: < 31.6 nM | IC50 [4]: < 31.6 nM | IC50 [5]: < 31.6 nM | IC50 [6]: < 31.6 nM | viability, T/C [7]: 14.3% | viability, T/C [8]: 15.1% | viability, T/C [9]: 13.8% | viability, T/C [10]: 14.1% | viability, T/C (second compound 0.0316 µM, first compound 3.16 µM): 17.1% | viability, T/C (second compound 0.0316 µM, first compound 10 µM): 22% | viability, T/C [11]: 19.8% | viability, T/C [12]: 17.3% | viability, T/C [13]: 22.2% | viability, T/C [14]: 21.9% | viability, T/C (second compound 0.1 µM, first compound 3.16 µM): 27.4% | viability, T/C (second compound 0.1 µM, first compound 10 µM): 35.1% | viability, T/C [15]: 16.9% | viability, T/C [16]: 17.5% | viability, T/C [17]: 26.2% | viability, T/C [18]: 27.8% | viability, T/C (second compound 0.316 µM, first compound 3.16 µM): 35.2% | viability, T/C (second compound 0.316 µM, first compound 10 µM): 37% | viability, T/C [19]: 17.1% | viability, T/C [20]: 17.7% | viability, T/C [21]: 23.9% | viability, T/C [22]: 24.2% | viability, T/C (second compound 1 µM, first compound 3.16 µM): 31.9% | viability, T/C (second compound 1 µM, first compound 10 µM): 28.6% | viability, T/C [23]: 16.6% | viability, T/C [24]: 18.2% | viability, T/C [25]: 20.1% | viability, T/C [26]: 24.6% | viability, T/C (second compound 3.16 µM, first compound 3.16 µM): 27.2% | viability, T/C (second compound 3.16 µM, first compound 10 µM): 27.2% | viability, T/C [27]: 16.9% | viability, T/C [28]: 18.1% | viability, T/C [29]: 20.6% | viability, T/C [30]: 23.5% | viability, T/C (second compound 10 µM, first compound 3.16 µM): 25.1% | viability, T/C (second compound 10 µM, first compound 10 µM): 25.6%

CC(Nc1ccc2c(c1)OCCn1cc(N3C(=O)OCC3C(F)F)nc1-2)C(N)=O (stereo not given)
viability, T/C (compound 0.0316 µM): 67.9% and 69% | viability, T/C (compound 0.1 µM): 49.2% and 55% | viability, T/C (compound 0.316 µM): 32% and 34.8% | viability, T/C (compound 1 µM): 25% and 29.9% | viability, T/C (compound 3.16 µM): 20.4% and 24.6% | viability, T/C (compound 10 µM): 10.8% and 12.4% | IC50 (curve of compound): 91 nM and 128 nM

CC(C)CC(NC(=O)C(Cc1ccccc1)NC(=O)c1cnccn1)B(O)O (stereo not given) + CNC(=O)c1ccc(Nc2nc(OC3CCCC3)c3c(-c4ccc5nc(C)oc5c4)c[nH]c3n2)c(OC)c1
IC50 [1]: 1.27 nM | IC50 [2]: < 0.949 nM | IC50 [3]: < 0.949 nM | IC50 [4]: < 0.949 nM | IC50 [5]: < 0.949 nM | IC50 [6]: < 0.949 nM | viability, T/C (second compound 0.0316 µM, first compound 0.000949 µM): 66.2% | viability, T/C (second compound 0.0316 µM, first compound 0.003 µM): 1.72% | viability, T/C (second compound 0.0316 µM, first compound 0.00949 µM): 0.22% | viability, T/C (second compound 0.0316 µM, first compound 0.03 µM): 0.21% | viability, T/C (second compound 0.0316 µM, first compound 0.0949 µM): 0.13% | viability, T/C (second compound 0.0316 µM, first compound 0.3 µM): 0.19% | viability, T/C (second compound 0.1 µM, first compound 0.000949 µM): 37.7% | viability, T/C (second compound 0.1 µM, first compound 0.003 µM): 1.25% | viability, T/C (second compound 0.1 µM, first compound 0.00949 µM): 0.18% | viability, T/C (second compound 0.1 µM, first compound 0.03 µM): 0.13% | viability, T/C (second compound 0.1 µM, first compound 0.0949 µM): 0.55% | viability, T/C (second compound 0.1 µM, first compound 0.3 µM): 0.13% | viability, T/C (second compound 0.316 µM, first compound 0.000949 µM): 21.6% | viability, T/C (second compound 0.316 µM, first compound 0.003 µM): 1.05% | viability, T/C (second compound 0.316 µM, first compound 0.00949 µM): 0.17% | viability, T/C (second compound 0.316 µM, first compound 0.03 µM): 0.08% | viability, T/C (second compound 0.316 µM, first compound 0.0949 µM): 0.1% | viability, T/C (second compound 0.316 µM, first compound 0.3 µM): 0.13% | viability, T/C (second compound 1 µM, first compound 0.000949 µM): 17.3% | viability, T/C (second compound 1 µM, first compound 0.003 µM): 0.5% | viability, T/C (second compound 1 µM, first compound 0.00949 µM): 0.13% | viability, T/C (second compound 1 µM, first compound 0.03 µM): 0.1% | viability, T/C (second compound 1 µM, first compound 0.0949 µM): 0.1% | viability, T/C (second compound 1 µM, first compound 0.3 µM): 0.12% | viability, T/C (second compound 3.16 µM, first compound 0.000949 µM): 12.2% | viability, T/C (second compound 3.16 µM, first compound 0.003 µM): 0.3% | viability, T/C (second compound 3.16 µM, first compound 0.00949 µM): 0.2% | viability, T/C (second compound 3.16 µM, first compound 0.03 µM): 0.09% | viability, T/C (second compound 3.16 µM, first compound 0.0949 µM): 0.14% | viability, T/C (second compound 3.16 µM, first compound 0.3 µM): 0.16% | viability, T/C (second compound 10 µM, first compound 0.000949 µM): 12% | viability, T/C (second compound 10 µM, first compound 0.003 µM): 0.29% | viability, T/C (second compound 10 µM, first compound 0.00949 µM): 0.87% | viability, T/C (second compound 10 µM, first compound 0.03 µM): 0.13% | viability, T/C (second compound 10 µM, first compound 0.0949 µM): 1.24% | viability, T/C (second compound 10 µM, first compound 0.3 µM): 0.19%
